According to US20100160361A1, “TREATMENT OF MAJOR ADVERSE CARDIAC EVENTS AND ACUTE CORONARY SYNDROME USING SECRETORY PHOSPHOLIPASE A2 (SPLA2) INHIBITOR OR SPLA2 INHIBITOR COMBINATION THERAPIES” (priority 2008, published 2010):
Like-named read-outs stand apart in the source and are kept apart here.

Assays:
[1] = test system: stable CVD population; settings: cited from earlier work
[2] = Pharmacokinetics of A-002; settings: in vivo
[3] = test system: serum hs-CRP; test: Serum hs-CRP levels in human ACS subjects; format: in vivo
Protocol: (§1) 625 adult (18 years of age or older) unstable human subjects who had recently experienced an index ACS event (UA, NSTEMI, or STEMI) were randomized to receive placebo or A-002 at 500 mg once daily via oral administration in a double-blinded manner. A-002 was delivered in the form of two 250 mg tablets. In addition, all subjects received atorvastatin at 80 mg once daily via oral administration of a single tablet.
(§2) Subjects were randomized within 96 hours of hospital admission for an index ACS event, or within 96 hours of index ACS event diagnosis if already hospitalized. Prior to randomization, subjects were screened for pertinent medical history, and baseline levels of LDL and hs-CRP were measured. Baseline sPLA2 levels were also measured in a random subset of subjects. Percutaneous revascularization, if required or planned for a particular subject, was performed prior to randomization.
(§3) Subjects were excluded if they were receiving statin therapy at maximum recommended or tolerated dosage (i.e., 40-80 mg QD for atorvastatin, fluvastatin, lovastatin, pravastatin, or simvastatin, or 20-40 mg QD rosuvastatin) at the time of the index ACS event. During the trial, subjects were prevented from using any lipid-lowering therapy other than 80 mg atorvastatin and/or A-002.
(§4) For purposes of this study, MACEs included all-cause mortality, non-fatal MI, documented UA requiring urgent hospitalization, revascularization occurring 60 days or more after the initial index ACS event, and non-fatal stroke. Subjects were evaluated at 2, 4, 8, 12, 16, 20, and 24 weeks after randomization and monthly thereafter until study completion. Each evaluation included measurement of serum LDL levels and recordation of any MACEs or less severe adverse events occurring since the previous evaluation. In addition, certain evaluation periods included measurement of one or more of hs-CRP, sPLA2, IL-6, and/or other biomarker levels, vital signs, weight, and/or waist circumference. […] This final evaluation included at least a complete physical examination, a 12-lead ECG reading, measurement of LDL, hs-CRP, sPLA2, and IL-6 levels, and recordation of any MACEs during the study period.

[4] = test system: LDL and CRP levels; test: Reaching composite target LDL and hs-CRP levels in human ACS subjects; format: in vivo; settings: ITT population
Protocol: as §1, §2, §3, §4

[5] = test system: Human ACS Subjects; test: Major adverse cardiac events (MACEs) in human ACS subjects; format: in vivo
Protocol: as §1, §2, §3, §4

[6] = test system: serum sPLA2; test: Serum sPLA2 levels in human ACS subjects; format: in vivo; settings: ITT population
Protocol: as §1, §2, §3, §4

[7] = test system: subjects that had recently experienced an ACS event; settings: 80 mg atorvastatin; subjects that had recently experienced an ACS event (Schwartz 2001); cited from earlier work
[8] = test system: serum IL-6; test: Serum IL-6 levels in human ACS subjects; format: in vivo
Protocol: as §1, §2, §3, §4

[9] = test system: serum LDL; settings: for % of subjects with [LDL] < 50 mg/dl / % of subjects with [LDL] < 70 mg/dl / % of subjects with [LDL] < 100 mg/dl / % change in mean [LDL] from baseline / Change in mean [LDL] from baseline: ITT population
[10] = ITT population, cumulative at 16 weeks

CCc1c(C(=O)C(N)=O)c2c(OCC(=O)OC)cccc2n1Cc1ccccc1 [A-002, [[3-(2-Amino-1,2-dioxoethyl)-2-ethyl-1-(phenylmethyl)-1H-indol-4-yl]oxy]acetic acid methyl ester]
effect on cholesterol levels ([1]; once- or twice-daily administration, stable CVD population, diabetic and high baseline LDL-C subpopulations): decreases total cholesterol, LDL-C, total LDL-C particle, and small LDL-C particle levels | effect on inflammatory markers ([1]; stable populations): decreases levels of various inflammatory markers such as hs-CRP and sPLA2 | absorption and conversion to active molecule [2]: rapidly absorbed and hydrolyzed to the active A-001 molecule

CC(C)c1c(C(=O)Nc2ccccc2)c(-c2ccccc2)c(-c2ccc(F)cc2)n1CC[C@@H](O)C[C@@H](O)CC(=O)O [Placebo (atorvastatin only), atorvastatin]
% change in median [hs-CRP] from baseline ([3]; ITT population, Week 2): −20.0% | % change in median [hs-CRP] from baseline ([3]; ITT population, Week 4): −63.5% | % change in median [hs-CRP] from baseline ([3]; ITT population, Week 8): −71.0% | % change in median [hs-CRP] from baseline ([3]; ITT population, Week 16): −71.8% | % change in log mean [hs-CRP] from baseline ([3]; ITT population, Week 24): −77.0% | % change in median [hs-CRP] from baseline ([3]; diabetes subpopulation, Week 2): −11.0% | % change in median [hs-CRP] from baseline ([3]; diabetes subpopulation, Week 4): −51.1% | % change in median [hs-CRP] from baseline ([3]; diabetes subpopulation, Week 8): −67.6% | % change in median [hs-CRP] from baseline ([3]; diabetes subpopulation, Week 16): −72.4% | % change in median [hs-CRP] from baseline ([3]; diabetes subpopulation, Week 24): −76.1% | % of subjects with mean [LDL] < 70 mg/dl and [hs-CRP] <1 mg/L ([4]; Baseline): 0.4% | % of subjects with mean [LDL] < 70 mg/dl and [hs-CRP] < 3 mg/L ([4]; Baseline): 1.4% | % of subjects with mean [LDL] < 70 mg/dl and [hs-CRP] <1 mg/L ([4]; Week 2): 5.6% | % of subjects with mean [LDL] < 70 mg/dl and [hs-CRP] < 3 mg/L ([4]; Week 2): 16.4% | % of subjects with mean [LDL] < 70 mg/dl and [hs-CRP] <1 mg/L ([4]; Week 4): 12.8% | % of subjects with mean [LDL] < 70 mg/dl and [hs-CRP] < 3 mg/L ([4]; Week 4): 30.5% | % of subjects with mean [LDL] < 70 mg/dl and [hs-CRP] <1 mg/L ([4]; Week 8): 17.5% | % of subjects with mean [LDL] < 70 mg/dl and [hs-CRP] < 3 mg/L ([4]; Week 8): 36.8% | % of subjects with mean [LDL] < 70 mg/dl and [hs-CRP] <1 mg/L ([4]; Week 16): 15.6% | % of subjects with mean [LDL] < 70 mg/dl and [hs-CRP] < 3 mg/L ([4]; Week 16): 32.9% | % of subjects with mean [LDL] < 70 mg/dl and [hs-CRP] <1 mg/L ([4]; Week 24): 15.9% | % of subjects with mean [LDL] < 70 mg/dl and [hs-CRP] < 3 mg/L ([4]; Week 24): 34.1% | Death (# of events) ([5]; ITT population, 0-30 days): 4 | MI (# of events) ([5]; ITT population, 0-30 days): 2 | Stroke (# of events) ([5]; ITT population, 0-30 days): 0 | Total MACE (# of events) ([5]; ITT population, 0-30 days): 12 | UA (# of events) ([5]; ITT population, 0-30 days): 6 | Death (# of events), cumulative ([5]; ITT population, 0-60 days): 4 | MI (# of events), cumulative ([5]; ITT population, 0-60 days): 3 | Stroke (# of events), cumulative ([5]; ITT population, 0-60 days): 0 | Total MACE (# of events), cumulative ([5]; ITT population, 0-60 days): 14 | UA (# of events), cumulative ([5]; ITT population, 0-60 days): 7 | Death (# of events), cumulative ([5]; ITT population, 0-90 days): 5 | MI (# of events), cumulative ([5]; ITT population, 0-90 days): 3 | Stroke (# of events), cumulative ([5]; ITT population, 0-90 days): 1 | Total MACE (# of events), cumulative ([5]; ITT population, 0-90 days): 17 | UA (# of events), cumulative ([5]; ITT population, 0-90 days): 8 | Death (# of events), cumulative ([5]; ITT population, 0-112 days): 5 | MI (# of events), cumulative ([5]; ITT population, 0-112 days): 4 | Stroke (# of events), cumulative ([5]; ITT population, 0-112 days): 1 | Total MACE (# of events), cumulative ([5]; ITT population, 0-112 days): 19 | UA (# of events), cumulative ([5]; ITT population, 0-112 days): 9 | Death (# of events) ([5]; ITT population, 30-60 days): 0 | MI (# of events) ([5]; ITT population, 30-60 days): 1 | Stroke (# of events) ([5]; ITT population, 30-60 days): 0 | Total MACE (# of events) ([5]; ITT population, 30-60 days): 2 | UA (# of events) ([5]; ITT population, 30-60 days): 1 | Death (# of events) ([5]; ITT population, 60-90 days): 1 | MI (# of events) ([5]; ITT population, 60-90 days): 0 | Stroke (# of events) ([5]; ITT population, 60-90 days): 1 | Total MACE (# of events) ([5]; ITT population, 60-90 days): 3 | UA (# of events) ([5]; ITT population, 60-90 days): 1 | Death (# of events) ([5]; ITT population, 90-112 days): 0 | MI (# of events) ([5]; ITT population, 90-112 days): 1 | Stroke (# of events) ([5]; ITT population, 90-112 days): 0 | Total MACE (# of events) ([5]; ITT population, 90-112 days): 2 | UA (# of events) ([5]; ITT population, 90-112 days): 1 | Death (% of subjects) [5, 10]: 1.6% | Death (number) [5, 10]: 5 | MI (% of subjects) [5, 10]: 1.3% | MI (number) [5, 10]: 4 | Revascularization ≧ 60 days (number) [5, 10]: 0 | Stroke (% of subjects) [5, 10]: 0.3% | Stroke (number) [5, 10]: 1 | Total MACEs (% of subjects) [5, 10]: 6.1% | Total MACEs (number) [5, 10]: 19 | UA requiring hospitalization (% of subjects) [5, 10]: 2.9% | UA requiring hospitalization (number) [5, 10]: 9 | % of subjects who experienced a MACE ([5]; days 0 to 30): 3.9% | % of subjects who experienced a MACE ([5]; days 0 to 60): 4.5% | % of subjects who experienced a MACE ([5]; days 0 to 90): 5.5% | % change in median [sPLA2] from baseline ([6]; Week 2): +5.4% | % change in median [sPLA2] from baseline ([6]; Week 4): −7.0% | % change in median [sPLA2] from baseline ([6]; Week 8): −15.6% | % change in median [sPLA2] from baseline ([6]; Week 16): −12.1% | absolute reduction in death, non-fatal MI, cardiac arrest with resuscitation, or worsening symptomatic myocardial ischemia [7]: 2.6% | relative reduction in death, non-fatal MI, cardiac arrest with resuscitation, or worsening symptomatic myocardial ischemia [7]: 16% | % change in median [IL-6] from baseline ([8]; ITT population, Week 2): −5.2% | % change in median [IL-6] from baseline ([8]; ITT population, Week 4): −33.7% | % change in median [IL-6] from baseline ([8]; ITT population, Week 8): −38.3% | % change in median [IL-6] from baseline ([8]; diabetes subpopulation, Week 2): +3.5% | % change in median [IL-6] from baseline ([8]; diabetes subpopulation, Week 4): −23.9% | % change in median [IL-6] from baseline ([8]; diabetes subpopulation, Week 8): −40.4% | % of subjects with [LDL] < 50 mg/dl ([9]; Baseline): 1.1% | % of subjects with [LDL] < 70 mg/dl ([9]; Baseline): 5.2% | % of subjects with [LDL] < 100 mg/dl ([9]; Baseline): 24.1% | % change in mean [LDL] from baseline ([9]; Week 2): −41.7% | % of subjects with [LDL] < 50 mg/dl ([9]; Week 2): 21.9% | % of subjects with [LDL] < 70 mg/dl ([9]; Week 2): 54.6% | % of subjects with [LDL] < 100 mg/dl ([9]; Week 2): 89.1% | Change in mean [LDL] from baseline ([9]; Week 2): -52.5 mg/dL | % change in mean [LDL] from baseline ([9]; Week 4): −42.3% | % of subjects with [LDL] < 50 mg/dl ([9]; Week 4): 25.0% | % of subjects with [LDL] < 70 mg/dl ([9]; Week 4): 54.8% | % of subjects with [LDL] < 100 mg/dl ([9]; Week 4): 91.2% | Change in mean [LDL] from baseline ([9]; Week 4): -55.5 mg/dL | % change in mean [LDL] from baseline ([9]; Week 8): −43.8% | % of subjects with [LDL] < 50 mg/dl ([9]; Week 8): 22.7% | % of subjects with [LDL] < 70 mg/dl ([9]; Week 8): 59.9% | % of subjects with [LDL] < 100 mg/dl ([9]; Week 8): 91.4% | Change in mean [LDL] from baseline ([9]; Week 8): -56.6 mg/dL | % change in mean [LDL] from baseline ([9]; Week 16): −36.5% | % of subjects with [LDL] < 50 mg/dl ([9]; Week 16): 16.8% | % of subjects with [LDL] < 70 mg/dl ([9]; Week 16): 48.3% | % of subjects with [LDL] < 100 mg/dl ([9]; Week 16): 82.4% | Change in mean [LDL] from baseline ([9]; Week 16): -48.1 mg/dL | % change in mean [LDL] from baseline ([9]; Week 24): −38.2% | % of subjects with [LDL] < 50 mg/dl ([9]; Week 24): 14.1% | % of subjects with [LDL] < 70 mg/dl ([9]; Week 24): 50.0% | % of subjects with [LDL] < 100 mg/dl ([9]; Week 24): 86.5% | Change in mean [LDL] from baseline ([9]; Week 24): -50.0 mg/dL | percentage of subjects reaching target LDL levels of 50 mg/dl or less ([9]; final study visit): 16.0% | percentage of subjects reaching target LDL levels of 70 mg/dl or less ([9]; final study visit): 42.8%
